Assay results taken from the Kinase Knowledgebase extract (Sharma et al. 2016).

Tests used:
CDK2 [1] = target: CDK2 (UniProt P24941); test: Enzyme Assay
CDK2 [2] = target: CDK2 (UniProt P24941); test: Enzyme Assay; remark: listed apart in the source

| Compound | IC50 (CDK2 [1]) | IC50 (CDK2 [2]) |
| --- | --- | --- |
| CN1CCN(NC(=O)Nc2cccc3c2C(=O)c2c-3n[nH]c2-c2ccc(OCCN3CCCC3)cc2)CC1 | < 100 nM | < 100 nM |
| CC(C)c1nn(-c2c(Cl)cc(Cl)cc2Cl)c2nc(Cc3ccc(OCCN4CCOCC4)cc3)[nH]c(=O)c12 | < 100 nM | < 100 nM |
| CN1CCN(NC(=O)Nc2cccc3c2C(=O)c2c-3n[nH]c2-c2ccc(OCCN3CCOCC3)cc2)CC1 | < 10 nM | < 100 nM |
| CCCN(CCOc1ccc(-c2[nH]nc3c2C(=O)c2c(NC(=O)NN4CCOCC4)cccc2-3)cc1)CC1CC1 | < 100 nM | < 100 nM |
| CC(C)c1nn(-c2c(Cl)cccc2Cl)c2nc(Cc3ccc(OP(=O)(O)O)cc3)[nH]c(=O)c12 | < 10 nM | < 100 nM |
| CC(C)N1CCN(CCOc2ccc(-c3[nH]nc4c3C(=O)c3c(NC(=O)NN5CCOCC5)cccc3-4)cc2)CC1 | < 10 nM | < 10 nM |
| O=C(Nc1cccc2c1C(=O)c1c-2n[nH]c1-c1ccc(OCCN2CCCC2)cc1)NN1CCOCC1 | < 100 nM | < 100 nM |
| CC(C)c1nn(-c2c(Cl)cccc2Cl)c2nc(Cc3ccc(O)c(CN4CCN(C(C)C)CC4)c3)[nH]c(=O)c12 | < 100 nM | < 100 nM |
| CC(C)c1nn(-c2c(Cl)cc(Cl)cc2Cl)c2nc(Cc3ccc(NS(=O)(=O)CCCN4CCOCC4)cc3)[nH]c(=O)c12 | < 100 nM | < 100 nM |
